This test deals with PmeR. Description: Induction assay of PmeR-enriched promoter library driving GFP in E. coli DH10B (flow cytometer). In kind it is cell-based, Pseudomonas syringae. To be noted: 300 uM naringenin, over-night growth, E. coli DH10B population repressed by PmeR. The text has this: In this example, the allosteric transcription factor was PmeR (repressor) and the inducer molecule was naringenin.
The post in vitro enrichment of polynucleotides (with PmeR protein) was cloned into a vector to drive the expression of a green fluorescent protein using the Golden Gate assembly method. Following the transformation and over-night growth in E. coli DH10B, the fluorescent intensity distribution was profiled using a flow cytometer with 488 nm laser and 510 (25) nm filter. The delivery of the transcription repressor was through a second vector containing constitutively expressing PmeR protein. The fluorescent intensity distribution shift was captured with a flow cytometer after over-night growth. A decrease of overall fluorescent intensity was observed. The induction assay was conducted with the addition of 300 uM naringenin to the previous E. coli population with decreased fluorescence.
(A flow cytometer gives signals particle by particle.)

In the case of `O=C1C[C@@H](c2ccc(O)cc2)Oc2cc(O)cc(O)c21` [naringenin], the “Change of fluorescent intensity distribution on induction” value was “overall increase in fluorescent intensity”.

For the origin of these results see patent US10745693B2, “Methods of designing programmable inducible promoters” (WISCONSIN ALUMNI RESEARCH FOUNDATION, priority 2017, dated 2020).
